Results taken from article PMC7946679, “Selective cytotoxicity of epidithiodiketopiperazine DC1149B, produced by marine-derived Trichoderma lixii on the cancer cells adapted to glucose starvation” (Journal of Natural Medicines, 2019).
≈ marks a conversion by molar mass, not a printed value.

What was measured:
PANC-1 cells = assay: Oxygen consumption rate of PANC-1 cells (OCR Assay Kit); assay type: cell-based, human; conditions: PANC-1 cells in General Glucose Medium, phosphorescent probe, 180 min
Protocol: Oxygen consumption rate of PANC-1 cells was assayed using OCR Assay Kit (Cayman Chemical, Ann Arbor, MI, USA) as per the manufacturer’s instructions. Briefly, pre-cultured PANC-1 cells (8.0 × 10^4 cells) in the black, clear bottom 96-well plate (Corning Incorporated, NY, USA) were incubated with General Glucose Medium for 18 h at 37 °C. The cells were replenished with 140 µl of fresh medium, and the test compound was added. This was followed by adding the phosphorescent probe to measure the oxygen consumption. 100 µl of mineral oil was added in each well to restrict oxygen diffusion. The signals were measured by an Infinite M1000 microplate reader (Tecan Group Ltd., Mannedorf, Switzerland) using time-resolved mode at Ex 380 nm and Em 650 nm for 180 min with 1-min time interval. The linear regression was applied after subtracting the blank, and the oxygen consumption rate was indicated by the slope of each signal profile.

mitochondrial Complex II = molecular target: T1, mitochondrial Complex II (Bos taurus, UniProt P31039+P35720+Q3T189+Q95123); assay: Mito Check Complex Activity Assay Kit, complex II; assay type: biochemical; conditions: mitochondrial electron transport chain
T1 construct: purchased Cayman Chemical
Description: (§1) Dulbecco’s Modified Eagle’s medium (DMEM), WST-8 colorimetric reagent, and KCN were purchased from Nacalai Tesque, Inc. (Kyoto, Japan). Fetal bovine serum (FBS) and Dialyzed FBS were purchased from Equitech-Bio Inc. (Kerrville, TX, USA) and Thermo Fisher Scientific Inc. (Waltham, MA, USA), respectively. Anti-Akt, Anti-phosphorylated Akt, anti-GRP78, and anti-β-actin antibodies were obtained from Cell Signaling Technology, Inc. (Danvers, MA, USA). Horseradish peroxidase (HRP)-linked anti-rabbit IgG antibody (GE Healthcare Life Sciences, Buckinghamshire, UK) was used as secondary antibody. Mito Check Complex Activity Assay Kit (Cayman Chemical, Ann Arbor, MI, USA) was used to evaluate the effect of compound 1 on the mitochondrial complex I–V. Oxygen consumption of cells was measured by Oxygen Consumption Rate (OCR) Assay Kit (Cayman Chemical, Ann Arbor, MI, USA). Rotenone, thenoyltrifluoroacetone (TTFA), carbonyl cyanide m-chlorophenylhydrazone (CCCP), antimycin A, and oligomycin A were obtained from Tokyo Chemical Industry Co., LTD. […]
(§2) Antimycin A is a known inhibitor of complex III in the mitochondrial electron transport chain [17]. […] We also evaluated the effect of compound 1 on the oxygen consumption of PANC-1 cells cultured in the Glucose Deficient Medium.

[1] = system: human pancreatic carcinoma PANC-1 cells; assay: Cytotoxicity (WST-8) against PANC-1 cells in Glucose Deficient or General Glucose Medium; assay type: cell-based; conditions: for IC50: Homo sapiens; for IC50 / IC50 Glucose (−): PANC-1 cells, 12 h with sample, WST-8; for S.I. (Selective index): IC50 General Glucose Medium versus IC50 Glucose Deficient Medium, PANC-1
Protocol: Human pancreatic carcinoma cell line PANC-1 was maintained in the DMEM supplemented with heat-inactivated 10% FBS and kanamycin (50 µg/ml) in a humidified atmosphere with 5% CO2 at 37 °C. To induce nutrient starvation, PANC-1 cells were cultured in the Glucose Deficient Medium [Basal Medium (25 mM HEPES buffer (pH 7.4) supplemented with 6.4 g/l NaCl, 700 mg/l NaHCO3, 400 mg/l KCl, 265 mg/l CaCl2·2H2O, 200 mg/l MgSO4·7H2O, 125 mg/l NaH2PO4, 0.1 mg/l Fe(NO3)·9H2O, 15 mg/l Phenol red, 10 mL/l MEM vitamin solution (X100) (GIBCO, Carlsbad, CA), 200 mmol/l L-glutamine solution (GIBCO, Carlsbad, CA), and 25 mg/l kanamycin) containing 10% dialyzed FBS]. The General Glucose Medium [Basal Medium supplemented with 10% FBS and […] glucose (final 25 mM)] was also used for control cells.
The bioassay was carried out according to a method described previously. Briefly, PANC-1 cells (1 × 10^4 cells/100 µl in 96 well plastic plate) were pre-incubated in the DMEM supplemented with 10% FBS for 24 h. The medium was then replaced with either the General Glucose Medium or Glucose Deficient Medium to induce cells adaption to the nutrient starvation. After 12-h incubation, the serially diluted samples were added, and the cells were incubated for an additional 12 h in a humidified atmosphere with 5% CO2 at 37 °C. The cell proliferation was detected using the WST-8 colorimetric reagent. The IC50 value was determined by linear interpolation from the growth inhibition curve. We assessed the selectivity of the cytotoxic activity (Selective Index, S.I.) based on the difference in the IC50 values obtained for experiments with General Glucose Media and Glucose Deficient Media.

GRP78 = assay: Western blotting, induction of GRP78 in PANC-1 cells; assay type: cell-based, human; conditions: PANC-1 in Glucose Deficient Medium, lowest test concentration 0.02 µM, 12 h, western blot
Protocol: (§3) PANC-1 cells (3 × 10^5 cells/2 ml in 6-well plastic plate) were pre-incubated in the DMEM supplement with 10% FBS for 24 h. The medium was then replaced with either General Glucose or Glucose Deficient Medium. […] Subsequently, the cells were rinsed with ice-cold PBS and lysed in the lysis buffer [50 mM Tris–HCl (pH 8.0) containing 150 mM NaCl, 5 mM EDTA, 1% glycerol, 1% NP-40, 1% protease inhibitor cocktail, and 1% phosphatase inhibitor cocktail]. The cell lysate was analyzed by SDS-PAGE and transferred onto PVDF membranes (GE Healthcare Life Sciences Buckinghamshire, UK). The membranes were then incubated with appropriate primary antibodies followed by HRP-conjugated secondary antibodies, and the immunopositive bands were visualized using an ECL kit (GE Healthcare Life Sciences). The luminescent signals were analyzed using an Image Quant LAS4010 Scanner (GE Healthcare Life Sciences).

[2] = system: Akt and phosphorylated Akt; assay: Western blotting, Akt signaling in PANC-1 cells; assay type: cell-based, human; conditions: PANC-1 in Glucose Deficient Medium, 0.02–0.3 µM, 12 h, western blot
Protocol: as §3

mitochondrial Complex I = mitochondrial Complex I (Bos taurus, UniProt P03887+P17694+P42026); assay: biochemical; conditions: mitochondrial electron transport chain
[3] = molecular target: mitochondrial Complex II/III (Bos taurus, UniProt P00125+P00157+P13272); assay: Mito Check Complex Activity Assay Kit, complex II/III; assay type: biochemical; conditions: mitochondrial electron transport chain
Description: as §1, §2

mitochondrial Complex IV = mitochondrial Complex IV (Bos taurus, UniProt P00396+P68530); assay: Mito Check Complex Activity Assay Kit, complex IV; assay type: biochemical; conditions: mitochondrial electron transport chain
Description: as §1, §2

mitochondrial Complex V = mitochondrial Complex V (Bos taurus, UniProt P00829+P00847+P19483+P32876); assay: Mito Check Complex Activity Assay Kit, complex V; assay type: biochemical; conditions: mitochondrial electron transport chain
Description: as §1, §2

[4] = system: rat adrenal pheochromocytoma cell line PC12; conditions: PC12 cells, cited from earlier work
[5] = system: human cervix epithelioid carcinoma HeLa cells; conditions: cited from earlier work
[6] = system: human leukemic Jurkat cell line; conditions: read-out: IC50 cytotoxicity Jurkat; cited from earlier work

T1 sequence (P31039 44-665): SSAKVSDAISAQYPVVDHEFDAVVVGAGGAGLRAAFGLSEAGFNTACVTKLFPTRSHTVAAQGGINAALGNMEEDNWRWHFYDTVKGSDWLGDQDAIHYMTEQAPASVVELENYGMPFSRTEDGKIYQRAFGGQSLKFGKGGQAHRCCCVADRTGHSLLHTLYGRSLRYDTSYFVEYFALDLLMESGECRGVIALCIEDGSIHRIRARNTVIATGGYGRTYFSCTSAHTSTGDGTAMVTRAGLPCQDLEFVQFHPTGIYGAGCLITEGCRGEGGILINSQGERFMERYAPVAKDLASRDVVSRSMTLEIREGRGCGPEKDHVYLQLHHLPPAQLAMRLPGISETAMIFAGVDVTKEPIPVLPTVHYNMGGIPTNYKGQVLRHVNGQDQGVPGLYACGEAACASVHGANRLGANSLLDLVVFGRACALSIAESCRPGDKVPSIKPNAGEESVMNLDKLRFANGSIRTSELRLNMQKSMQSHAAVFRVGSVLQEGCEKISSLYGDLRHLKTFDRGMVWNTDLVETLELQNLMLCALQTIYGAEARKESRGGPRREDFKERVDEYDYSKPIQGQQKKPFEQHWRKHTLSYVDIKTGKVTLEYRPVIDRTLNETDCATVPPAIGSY
T1 sequence (Q3T189 29-280): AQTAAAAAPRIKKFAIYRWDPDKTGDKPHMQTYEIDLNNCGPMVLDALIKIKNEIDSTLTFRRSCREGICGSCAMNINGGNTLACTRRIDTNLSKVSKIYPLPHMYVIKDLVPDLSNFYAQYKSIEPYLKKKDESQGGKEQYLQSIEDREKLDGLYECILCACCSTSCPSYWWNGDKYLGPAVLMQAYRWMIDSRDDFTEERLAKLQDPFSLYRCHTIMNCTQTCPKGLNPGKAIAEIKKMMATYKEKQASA
T1 sequence (P35720 30-169): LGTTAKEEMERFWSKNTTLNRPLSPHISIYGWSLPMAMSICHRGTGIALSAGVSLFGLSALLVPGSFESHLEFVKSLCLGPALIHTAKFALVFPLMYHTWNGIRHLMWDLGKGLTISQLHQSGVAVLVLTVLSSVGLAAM
T1 sequence (Q95123 56-158): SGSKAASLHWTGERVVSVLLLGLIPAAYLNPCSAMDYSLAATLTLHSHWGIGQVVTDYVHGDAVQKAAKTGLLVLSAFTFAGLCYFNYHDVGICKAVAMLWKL

Row | SMILES | oxygen consumption of PANC-1 cells (PANC-1 cells) | IC50 (mitochondrial Complex II) [µM] | IC50 ([1]; General Glucose Medium) [µM] | IC50 ([1]; Glucose Deficient Medium) [µM] | IC50 Glucose (−) ([1]; Glucose Deficient Medium) | S.I. (Selective index) [1] | also measured
1 | N#CC(C#N)=NNc1cccc(Cl)c1 [CCCP, carbonyl cyanide m-chlorophenylhydrazone] | showed the opposite effect to antimycin A |  |  |  |  |  | 
2 | O=C(CC(=O)C(F)(F)F)c1cccs1 [thenoyltrifluoroacetone, reference compound] |  | 65 |  |  |  |  | 
3 | COc1ccc2cc(NC(=O)C34CC5(O)C(C=CC(O)C5ON3)S4)c(=O)oc2c1OC (stereo not drawn) [Compound 3, aspergillazine A] |  |  | > 1000 | > 1000 | very weak |  | 
4 | COc1ccc2cc(NC(=O)C3=NO[C@H]4[C@H](O)C=C[C@@H](O)[C@@]4(O)C3)c(=O)oc2c1OC [Compound 2, trichodermamide A] |  |  | > 1000 | 270 | very weak | > 3.7 | 
5 | COc1ccc(C2SSC34CC5(O)C(Cl)C=CC(O)C5ON3C(=O)C2NC4=O)c(O)c1OC (stereo not drawn) [Compound 1, DC1149B] | inhibited the oxygen consumption | 19 | 710 | 0.02 |  |  | expression of GRP78 (GRP78): decreased the expression of GRP78 in the nutrient-starved cells to the basal level; levels of Akt and phosphorylated Akt [2]: reduced the levels of Akt and phosphorylated Akt in the nutrient-starved cells in a dose-dependent manner; IC50 (mitochondrial Complex I): > 30 µM; IC50 [3]: > 30 µM; IC50 (mitochondrial Complex IV): > 30 µM; IC50 (mitochondrial Complex V): > 30 µM; IC50 cytotoxic activity PC12 [4]: 21.9 µg/mL (≈ 42.4 µM); IC50 ([4]; read-out: IC50 cytotoxic activity PC12): 42.4 µM; IC50 cytotoxic activity HeLa [5]: 50.1 µg/mL (≈ 96.9 µM); IC50 ([5]; read-out: IC50 cytotoxic activity HeLa): 97.1 µM; IC50 [6]: 5.1 µM
6 | CCCCCC[C@H]1C(=O)O[C@H](C)[C@H](NC(=O)c2cccc(NC=O)c2O)C(=O)O[C@@H](C)[C@@H]1OC(=O)CC(C)C [Antimycin A, reference compound] | inhibited the oxygen consumption |  |  | 0.0003 |  | 960,000 | 
